Values after ≈ are worked out from the molar mass of the structure shown.
Assays:
M. bovis BCG [1] = assay: microbe, parasite or virus in culture; format: cell-based; settings: Mycobacterium tuberculosis variant bovis BCG, read-out: MIC MIC50
M. bovis BCG [2] = format: cell-based, Mycobacterium bovis BCG
piniBAC promoter = format: cell-based, Mycobacterium bovis BCG; settings: 0.4-100 μM, 24 h
[3] = Electrophilic reactivity to cysteamine by 1H NMR; format: physicochemical; settings: DMSO-d6, 1% acetic acid, up to 24 h
Mtb H37Rv = test system: Mtb H37Rv; parameters: species or system BALB/c mice; settings: mouse, in vivo
[4] = lecithin-dodecane lipid layer, 24 h, 25°C
[5] = for tolerability in PK study: 25 mg/kg PO single dose, mice; for levels in lung: CD-1, mouse, in vivo
[6] = 100 mg/kg po daily over 4 weeks (24 doses)
human red blood cells = assay: Compound-induced hemolysis of human red blood cells; settings: hemolyze 50% of human RBCs vs 2% Triton X-100
physchem = settings: pH 7.4
M. bovis BCG [7] = format: cell-based, Mycobacterium bovis BCG; remark: listed apart in the source

Work on CCCCCCCCn1cc(CN2CCC3(CC2)OCCCO3)c2ccc(OCCC)cc21 [Compound 57f] yielded an MIC50 (M. bovis BCG [1]) of 0.5 to 0.7 µM (≈ 0.228 to 0.32 µg/mL).

Molecule CCCCCCCCn1cc(CN2CCC3(CC2)OCCCO3)c2ccc(C#N)cc21 [Compound 57e] has an MIC50 (M. bovis BCG [1]) of 0.5 to 0.7 µM (≈ 0.212 to 0.297 µg/mL).

For CCCCCCCCn1cc(CN2CCCCCC2)c2c(F)cccc21 [Compound 71, 3-(azepan-1-ylmethyl)-4-fluoro-1-octyl-1H indole], the “membrane potential (DiOC2 red/green ratio)” value (M. bovis BCG [2]) was “no depolarization at these early time points”.

In the case of CCCCCCCCn1cc(CN2CCC3(CC2)OCCCO3)c2ccc(OC)cc21 [Compound 12], the “induction of piniBAC promoter activity” value (piniBAC promoter) is reported as “increased the transcriptional activity of the piniBAC in a concentration dependent manner”, the “electrophilic reactivity to cysteamine” value [3] is reported as “limited electrophilic reactivity” and the “bacterial loads in lungs and spleen (CFU)” value (Mtb H37Rv) is reported as “significantly inhibited bacterial growth in both organs”. For the same molecule, the “PAMPA Effective Permeability (Pe)” value [4] was “Cannot be determined”, the “tolerability in PK study” value [5] was “did not cause obvious adverse effects” and the “Lung concentration at 5 h” value ([5]; 25 mg/kg PO, CD1 mice) was 1408 ng/g. For the same molecule, the levels in lung [5] was ~ 3 μM, the “adverse effects during treatment period” value [6] was “no adverse effects were detected” and the HC50 (human red blood cells) was 64 µM.

For CCCCCCCCn1cc(CN2CCC3(CC2)OC[C@H](C)O3)c2ccc(OC)cc21 [Compound 7], the HC50 (human red blood cells) was 51 µM.

For CCCCCCCCn1cc(CN2CCC3(CC2)OCCCS3)c2ccc(OC)cc21 [Compound 13], the “induction of piniBAC promoter activity” value (piniBAC promoter) was “increased the transcriptional activity of the piniBAC in a concentration dependent manner”, the “electrophilic reactivity to cysteamine” value [3] was “limited electrophilic reactivity” and the “PAMPA Effective Permeability (Pe)” value [4] was “Cannot be determined”. The “tolerability in PK study” value [5] was “did not cause obvious adverse effects” and the solubility (physchem) was 30.9 ± 1.3 µM (≈ 13.7 µg/mL).

CCCCCCCCn1cc(CN2CCC3(CC2)OC[C@@H](C)O3)c2ccc(OC)cc21 [Compound 8] gave an HC50 (human red blood cells) of 75 µM.

With CCCCCCCCn1cc(CN2CCC3(CC2)OCCCO3)c2ccc(OC(C)C)cc21 [Compound 57g] the MIC50 (M. bovis BCG [1]) was 0.5 to 0.7 µM (≈ 0.228 to 0.32 µg/mL).

For CCCCCCCCn1cc(CN2CCC3(CC2)OCCO3)c2ccc(OC)cc21 [Compound 1, 8-[(6-methoxy-1-octyl-1H-indolyl-3-yl)methyl]-1,4-dioxa-8-azaspiro[4,5]decane], the “kill of mycobacterial cultures by 48 h (time-kill)” value (M. bovis BCG [7]) was “still viable at 48h”, the “induction of piniBAC promoter activity” value (piniBAC promoter) was “broadly similar to that of isoniazid” and the “bacterial loads in lungs and spleen (CFU)” value (Mtb H37Rv) was “only reduced the splenic bacterial load”. For the same molecule, the “PAMPA Effective Permeability (Pe)” value [4] was “Cannot be determined”, the levels in lung [5] was ~ 1 μM and the “adverse effects during treatment period” value [6] was “no adverse effects were detected”. It also gave a solubility (physchem) of 23.9 ± 0.8 µM (≈ 9.91 µg/mL) and an HC50 (human red blood cells) of 75 µM.
